Laboratory results published in paper PMC5452050 (ACS Omega, 2017).
Values after ≈ are worked out from the molar mass of the structure shown.

Tests used:
CLK1 = CLK1 (Homo sapiens, UniProt P49759); assay: Kd determination; assay type: binding
HCK = HCK (Homo sapiens, UniProt P08631); assay: Kd determination; assay type: binding
AXL = AXL (Homo sapiens, UniProt P30530); assay: Kd determination; assay type: binding
BLK = BLK (Homo sapiens, UniProt P51451); assay: Kd determination; assay type: binding
PIP5K1C = PIP5K1C (Homo sapiens, UniProt O60331); assay: Kd determination; assay type: binding
PIK4CB = PIK4CB (Homo sapiens, UniProt Q9UBF8); assay: Kd determination; assay type: binding
NEK10 = NEK10 (Homo sapiens, UniProt Q6ZWH5); assay: Kd determination; assay type: binding
RET (M918T) = RET (M918T) (Homo sapiens, UniProt P07949, M918T); assay: Kd determination; assay type: binding
MERTK = MERTK (Homo sapiens, UniProt Q12866); assay: Kd determination; assay type: binding
[1] = Liver microsomal stability; settings: dog, liver microsomes, pH 7.4
TRKA = TRKA (Homo sapiens, UniProt P04629); assay: Kd determination; assay type: binding
[2] = Liver microsomal stability; settings: rat, liver microsomes, pH 7.4
[3] = target: T1, recombinant human FLT3 (571–993) (Homo sapiens, UniProt P36888); assay: biochemical; assay type: biochemical
T1 sequence (P36888 571-993): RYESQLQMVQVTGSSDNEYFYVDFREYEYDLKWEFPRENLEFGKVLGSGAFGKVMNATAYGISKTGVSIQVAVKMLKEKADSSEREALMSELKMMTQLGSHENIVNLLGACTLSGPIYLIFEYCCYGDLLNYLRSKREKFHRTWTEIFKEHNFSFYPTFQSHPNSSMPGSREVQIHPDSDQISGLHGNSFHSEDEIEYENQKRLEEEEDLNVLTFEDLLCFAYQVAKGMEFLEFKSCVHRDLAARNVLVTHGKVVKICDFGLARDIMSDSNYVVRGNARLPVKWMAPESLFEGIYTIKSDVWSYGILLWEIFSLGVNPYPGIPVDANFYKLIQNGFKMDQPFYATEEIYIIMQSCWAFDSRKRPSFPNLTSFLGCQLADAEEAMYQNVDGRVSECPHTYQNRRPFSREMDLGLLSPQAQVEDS

PDGFRB = PDGFRB (Homo sapiens, UniProt P09619); assay: Kd determination; assay type: binding
LCK = LCK (Homo sapiens, UniProt P06239); assay: Kd determination; assay type: binding
KIT = KIT (Homo sapiens, UniProt P10721); assay: Kd determination; assay type: binding
RET (V804M) = RET (V804M) (Homo sapiens, UniProt P07949, V804M); assay: Kd determination; assay type: binding
TYRO3 = TYRO3 (Homo sapiens, UniProt Q06418); assay: Kd determination; assay type: binding
MINK = MINK (Homo sapiens, UniProt Q8N4C8); assay: Kd determination; assay type: binding
[4] = target: ABL1 (H396P)-phosphorylated (Homo sapiens, UniProt P00519, H396P); assay: Kd determination; assay type: binding
IRAK1 = IRAK1 (Homo sapiens, UniProt P51617); assay: Kd determination; assay type: binding
Solubility = assay type: physicochemical; settings: buffer, pH 7.4, aqueous buffer, kinetic from dmso stock
SRC = SRC (Homo sapiens, UniProt P12931); assay: Kd determination; assay type: binding
CLK4 = CLK4 (Homo sapiens, UniProt Q9HAZ1); assay: Kd determination; assay type: binding
CSF1R-autoinhibited = CSF1R-autoinhibited (Homo sapiens, UniProt P07333); assay: Kd determination; assay type: binding
AURKC = AURKC (Homo sapiens, UniProt Q9UQB9); assay: Kd determination; assay type: binding
PRKCQ = PRKCQ (Homo sapiens, UniProt Q04759); assay: Kd determination; assay type: binding
[5] = target: JAK2 (JH1 domain-catalytic) (Homo sapiens, UniProt O60674); assay: Kd determination; assay type: binding
PBS stability = assay type: physicochemical
Plasma stability [6] = assay type: in vitro ADME; settings: human
CSF1R = CSF1R (Homo sapiens, UniProt P07333); assay: Kd determination; assay type: binding
[7] = target: TYK2 (JH1 domain-catalytic) (Homo sapiens, UniProt P29597); assay: Kd determination; assay type: binding
[8] = target: JAK1 (JH2 domain-pseudokinase) (Homo sapiens, UniProt P23458); assay: Kd determination; assay type: binding
Plasma stability [9] = assay type: in vitro ADME; settings: mouse
Simulated gastric fluid = assay type: physicochemical
FLT3-ITD phosphorylation = assay: Western blot of FLT3 signaling in MOLM13^FLT3-ITD cells; assay type: cell-based; settings: 1 h, read-out: FLT3 IC50 estimated from loss of FLT3-ITD phosphorylation
Plasma stability [10] = assay type: in vitro ADME; settings: rat
EPHB6 = EPHB6 (Homo sapiens, UniProt O15197); assay: Kd determination; assay type: binding
MV4-11 cells = assay: MV4-11 cell proliferation; assay type: cell-based

NEK10, sequence (Q6ZWH5 whole entry): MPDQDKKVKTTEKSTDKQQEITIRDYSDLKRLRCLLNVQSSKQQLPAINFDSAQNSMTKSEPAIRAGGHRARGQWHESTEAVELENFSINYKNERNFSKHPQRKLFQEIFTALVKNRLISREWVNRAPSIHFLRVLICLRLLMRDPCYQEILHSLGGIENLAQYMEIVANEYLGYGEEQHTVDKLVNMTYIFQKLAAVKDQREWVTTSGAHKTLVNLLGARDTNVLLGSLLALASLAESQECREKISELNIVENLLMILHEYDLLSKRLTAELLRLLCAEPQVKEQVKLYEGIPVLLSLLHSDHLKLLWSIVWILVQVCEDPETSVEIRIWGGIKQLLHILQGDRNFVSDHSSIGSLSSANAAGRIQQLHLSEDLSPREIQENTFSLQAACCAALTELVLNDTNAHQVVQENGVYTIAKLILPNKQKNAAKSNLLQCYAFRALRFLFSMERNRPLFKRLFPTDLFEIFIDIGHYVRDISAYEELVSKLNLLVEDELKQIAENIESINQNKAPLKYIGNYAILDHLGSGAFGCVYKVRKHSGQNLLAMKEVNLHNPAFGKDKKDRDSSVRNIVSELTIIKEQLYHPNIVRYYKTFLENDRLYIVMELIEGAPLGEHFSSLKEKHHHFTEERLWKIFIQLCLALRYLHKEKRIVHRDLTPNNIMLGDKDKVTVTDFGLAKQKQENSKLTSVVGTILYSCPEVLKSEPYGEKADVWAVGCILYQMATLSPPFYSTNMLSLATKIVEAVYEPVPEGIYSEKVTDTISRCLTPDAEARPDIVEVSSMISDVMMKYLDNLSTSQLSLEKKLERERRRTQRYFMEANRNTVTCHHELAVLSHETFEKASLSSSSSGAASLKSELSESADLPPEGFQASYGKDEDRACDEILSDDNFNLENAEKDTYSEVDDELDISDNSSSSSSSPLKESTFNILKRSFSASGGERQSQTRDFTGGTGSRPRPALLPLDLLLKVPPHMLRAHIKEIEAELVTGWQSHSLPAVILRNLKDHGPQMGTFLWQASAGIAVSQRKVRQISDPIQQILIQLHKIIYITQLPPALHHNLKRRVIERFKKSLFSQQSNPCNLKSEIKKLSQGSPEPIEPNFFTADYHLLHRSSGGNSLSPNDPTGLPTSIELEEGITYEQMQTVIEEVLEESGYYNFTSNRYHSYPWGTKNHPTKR
PDGFRB, sequence (P09619 33-1106): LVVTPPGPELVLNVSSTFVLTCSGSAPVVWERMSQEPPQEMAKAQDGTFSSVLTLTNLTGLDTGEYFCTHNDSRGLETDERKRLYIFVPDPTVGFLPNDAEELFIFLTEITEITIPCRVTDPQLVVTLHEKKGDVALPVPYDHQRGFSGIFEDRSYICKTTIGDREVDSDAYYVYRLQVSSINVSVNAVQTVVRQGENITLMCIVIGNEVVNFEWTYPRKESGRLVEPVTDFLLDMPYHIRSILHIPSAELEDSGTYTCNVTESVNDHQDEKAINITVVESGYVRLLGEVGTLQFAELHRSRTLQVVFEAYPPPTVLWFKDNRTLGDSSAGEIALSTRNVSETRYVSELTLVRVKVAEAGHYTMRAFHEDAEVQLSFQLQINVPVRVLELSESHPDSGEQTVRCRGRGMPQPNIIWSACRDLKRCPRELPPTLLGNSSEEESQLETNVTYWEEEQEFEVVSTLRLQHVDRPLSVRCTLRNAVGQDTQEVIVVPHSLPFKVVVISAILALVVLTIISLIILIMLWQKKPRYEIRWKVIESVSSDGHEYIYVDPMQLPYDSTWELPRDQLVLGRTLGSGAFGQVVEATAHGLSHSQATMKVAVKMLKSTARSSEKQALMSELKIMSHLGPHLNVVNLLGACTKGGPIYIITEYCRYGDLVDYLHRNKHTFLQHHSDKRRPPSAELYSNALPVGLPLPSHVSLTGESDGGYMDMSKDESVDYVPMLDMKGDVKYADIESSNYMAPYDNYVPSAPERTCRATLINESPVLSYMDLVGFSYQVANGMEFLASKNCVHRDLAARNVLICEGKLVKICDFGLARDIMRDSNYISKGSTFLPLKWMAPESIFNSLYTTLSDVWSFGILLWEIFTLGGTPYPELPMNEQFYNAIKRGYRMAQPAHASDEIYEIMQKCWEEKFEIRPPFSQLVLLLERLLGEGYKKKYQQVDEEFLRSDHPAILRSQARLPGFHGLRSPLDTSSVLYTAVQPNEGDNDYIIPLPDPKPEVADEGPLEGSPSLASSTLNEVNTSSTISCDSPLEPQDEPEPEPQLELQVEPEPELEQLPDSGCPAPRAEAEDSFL
PIK4CB, sequence (Q9UBF8 whole entry): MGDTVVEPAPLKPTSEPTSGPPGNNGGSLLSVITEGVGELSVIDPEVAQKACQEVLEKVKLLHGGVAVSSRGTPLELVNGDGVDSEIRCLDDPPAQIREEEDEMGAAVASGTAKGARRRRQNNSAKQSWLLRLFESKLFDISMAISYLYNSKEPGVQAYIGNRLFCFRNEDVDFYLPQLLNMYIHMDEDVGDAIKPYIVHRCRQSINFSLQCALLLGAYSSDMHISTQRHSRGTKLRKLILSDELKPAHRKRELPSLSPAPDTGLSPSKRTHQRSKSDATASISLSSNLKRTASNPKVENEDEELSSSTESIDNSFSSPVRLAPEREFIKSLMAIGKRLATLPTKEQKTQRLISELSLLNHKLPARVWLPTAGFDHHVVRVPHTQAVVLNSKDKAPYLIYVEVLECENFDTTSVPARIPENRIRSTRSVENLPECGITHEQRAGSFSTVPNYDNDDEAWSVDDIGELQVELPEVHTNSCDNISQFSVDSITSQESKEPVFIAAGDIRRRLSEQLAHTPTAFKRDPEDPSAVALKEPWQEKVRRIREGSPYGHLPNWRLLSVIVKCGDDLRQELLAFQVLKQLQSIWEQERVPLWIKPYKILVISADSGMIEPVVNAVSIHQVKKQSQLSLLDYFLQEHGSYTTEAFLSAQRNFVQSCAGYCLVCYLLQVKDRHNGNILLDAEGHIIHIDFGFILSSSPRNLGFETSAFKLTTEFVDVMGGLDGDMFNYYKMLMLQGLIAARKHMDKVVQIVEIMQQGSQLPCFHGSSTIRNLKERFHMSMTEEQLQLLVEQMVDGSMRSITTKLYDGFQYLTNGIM
CLK4, sequence (Q9HAZ1 whole entry): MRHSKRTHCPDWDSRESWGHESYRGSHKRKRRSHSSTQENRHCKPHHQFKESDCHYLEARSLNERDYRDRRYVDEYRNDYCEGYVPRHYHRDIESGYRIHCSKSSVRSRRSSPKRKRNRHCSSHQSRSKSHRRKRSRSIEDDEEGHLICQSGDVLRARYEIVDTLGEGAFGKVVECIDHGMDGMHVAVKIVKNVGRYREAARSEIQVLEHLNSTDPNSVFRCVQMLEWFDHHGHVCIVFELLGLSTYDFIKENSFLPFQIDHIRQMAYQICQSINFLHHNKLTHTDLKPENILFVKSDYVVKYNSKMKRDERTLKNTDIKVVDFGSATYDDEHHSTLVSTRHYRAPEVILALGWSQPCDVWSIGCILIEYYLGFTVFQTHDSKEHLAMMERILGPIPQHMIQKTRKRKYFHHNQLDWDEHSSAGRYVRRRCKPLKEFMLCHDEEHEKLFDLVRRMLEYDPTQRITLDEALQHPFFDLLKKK
CLK1, sequence (P49759 whole entry): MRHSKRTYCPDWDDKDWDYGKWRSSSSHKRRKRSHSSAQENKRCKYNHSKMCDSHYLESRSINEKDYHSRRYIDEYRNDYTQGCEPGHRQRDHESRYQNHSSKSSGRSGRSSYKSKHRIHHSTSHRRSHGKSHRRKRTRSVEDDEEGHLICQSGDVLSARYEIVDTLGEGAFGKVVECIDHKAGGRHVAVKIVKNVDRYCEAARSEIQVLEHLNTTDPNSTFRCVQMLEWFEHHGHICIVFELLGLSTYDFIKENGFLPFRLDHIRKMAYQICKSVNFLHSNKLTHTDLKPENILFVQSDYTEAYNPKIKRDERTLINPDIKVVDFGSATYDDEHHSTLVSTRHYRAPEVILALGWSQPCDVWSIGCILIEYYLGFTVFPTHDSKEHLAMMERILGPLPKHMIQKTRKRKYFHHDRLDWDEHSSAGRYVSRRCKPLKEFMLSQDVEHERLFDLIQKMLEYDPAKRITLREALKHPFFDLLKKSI
PIP5K1C, sequence (O60331 whole entry): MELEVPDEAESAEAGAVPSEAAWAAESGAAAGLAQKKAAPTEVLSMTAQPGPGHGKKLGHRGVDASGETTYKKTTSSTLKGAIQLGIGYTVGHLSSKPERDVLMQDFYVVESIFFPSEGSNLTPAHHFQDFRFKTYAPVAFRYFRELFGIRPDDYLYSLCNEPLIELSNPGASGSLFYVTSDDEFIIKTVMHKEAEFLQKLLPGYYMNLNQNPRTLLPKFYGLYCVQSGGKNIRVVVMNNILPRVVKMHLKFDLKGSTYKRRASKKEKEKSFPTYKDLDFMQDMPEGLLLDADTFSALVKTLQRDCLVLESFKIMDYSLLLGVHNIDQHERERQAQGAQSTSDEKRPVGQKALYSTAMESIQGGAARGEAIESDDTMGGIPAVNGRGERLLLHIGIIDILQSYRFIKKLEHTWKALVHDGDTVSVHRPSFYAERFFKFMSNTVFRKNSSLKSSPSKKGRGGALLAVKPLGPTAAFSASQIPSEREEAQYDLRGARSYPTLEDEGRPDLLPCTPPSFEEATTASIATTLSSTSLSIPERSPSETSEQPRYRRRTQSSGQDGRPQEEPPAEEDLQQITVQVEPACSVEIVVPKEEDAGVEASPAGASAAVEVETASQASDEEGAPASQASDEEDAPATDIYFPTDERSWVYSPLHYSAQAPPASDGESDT
JAK2 (JH1 domain-catalytic), sequence (O60674 849-1124 limits assumed): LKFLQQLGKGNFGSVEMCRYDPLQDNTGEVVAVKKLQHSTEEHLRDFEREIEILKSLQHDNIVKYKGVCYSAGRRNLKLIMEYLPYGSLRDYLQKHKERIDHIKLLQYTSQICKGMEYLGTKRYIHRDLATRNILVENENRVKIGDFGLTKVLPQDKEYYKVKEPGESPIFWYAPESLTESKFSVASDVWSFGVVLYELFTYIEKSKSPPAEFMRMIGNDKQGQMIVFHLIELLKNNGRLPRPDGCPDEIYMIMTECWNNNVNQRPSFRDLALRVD

c1cncc(-c2cccc(Nc3nccc(NC4CCCCC4)n3)c2)c1 [Compound 1, N^4-Cyclohexyl-N^2-(3-(pyridin-3-yl)phenyl)pyrimidine-2,4-diamine]
Kd (CLK1): 430 nM | Kd (HCK): 2100 nM | Kd (AXL): 2100 nM | Kd (BLK): 3900 nM | Kd (PIP5K1C): 610 nM | Kd (PIK4CB): 370 nM | Kd (NEK10): 410 nM | Kd (RET (M918T)): 1200 nM | Kd (MERTK): 2800 nM | CLint scaled at 4 µM [1]: 49.4 ± 3.9 mL/min/kg | half-life at 4 µM [1]: 0.7 ± 0.1 h | Kd (TRKA): 1100 nM | CLint scaled at 4 µM [2]: 44.9 ± 1.4 mL/min/kg | half-life at 4 µM [2]: 1.04 ± 0.03 h | IC50 ([3]; FLT3 IC50, 100 μM ATP): < 6 nM | IC50 ([3]; FLT3 IC50, 2.5 mM ATP): 116 nM | Kd (PDGFRB): 120 nM | Kd (LCK): 2900 nM | Kd (KIT): 1500 nM | Kd (RET (V804M)): 1400 nM | Kd (TYRO3): 2700 nM | Kd (MINK): 2500 nM | Kd [4]: 2100 nM | Kd (IRAK1): 1500 nM | solubility at 18 h (Solubility): 0.4 ± 0.9 µM (≈ 0.138 µg/mL) | Kd (SRC): 1100 nM | Kd (CLK4): 690 nM | Kd (CSF1R-autoinhibited): 1500 nM | Kd (AURKC): > 10000 nM | Kd (PRKCQ): 1600 nM

CC(C)Nc1ccnc(Nc2cccc(-c3cccnc3)c2)n1 [Compound 5e, N^4-Isopropyl-N^2-(3-(pyridin-3-yl)phenyl)pyrimidine-2,4-diamine]
Kd [5]: 480 nM | PBS stability (PBS stability; pH = 3.0): >48 h | PBS stability (PBS stability; pH = 5.0): >48 h | PBS stability (PBS stability; pH = 7.4): >48 h | Kd (CLK1): 260 nM | plasma stability (Plasma stability [6]): >48 h | Kd (CSF1R): 460 nM | Kd [7]: 740 nM | Kd (PIP5K1C): 1300 nM | Kd [8]: 28 nM | Kd (PIK4CB): 330 nM | Kd (NEK10): 2000 nM | plasma stability (Plasma stability [9]): >48 h | CLint scaled at 4 µM [1]: 28.2 ± 1.9 mL/min/kg | half-life at 4 µM [1]: 1.2 ± 0.1 h | SGF stability (Simulated gastric fluid): >48 h | IC50 (FLT3-ITD phosphorylation): 50 to 100 nM | plasma stability (Plasma stability [10]): >48 h | CLint scaled at 4 µM [2]: 41.7 ± 2.7 mL/min/kg | half-life at 4 µM [2]: 1.1 ± 0.1 h | Kd (PDGFRB): 28 nM | Kd (EPHB6): 440 nM | solubility at 18 h (Solubility): 26.4 ± 17 µM (≈ 8.06 µg/mL) | Kd (CLK4): 1100 nM | fold improvement in MV4-11 growth inhibition relative to 1 (MV4-11 cells): approximately 10 fold
